Assays:
Format in all cases: cell-based
DHL-6 cells = test: Mitochondrial (BH3) profiling, Bcl-xL priming; conditions: DHL-6 leukemia cell line, compared with Molm 13, FIG. 3
Molm 13 cells = test: Mitochondrial (BH3) profiling, Bcl-xL priming; conditions: Molm 13 leukemia cell line, FIG. 3
AHR cells = test: Mitochondrial (BH3) profiling, Bcl-xL priming; conditions: AHR leukemia cell line, FIG. 3
Excerpt: The Bcl-xL/Bim heterodimer (HSBXB) can be detected by flow cytometry using a method for intracellular staining with the HSBXB antibody. Three leukemia cell lines, AHR, DHL6 and MOLM 13 were chosen based on their having differing amounts of Bcl-xL, Bim priming as determined by mitochondrial profiling. Consequently, the response to the Bcl-xL restricted, the Bcl-xL/Bim dimer “priming”, is known to be present at different amounts. A high signal mediated by Hrk-BH3 peptide indicates the existence of Bcl-xL/Bim heterodimer.
The HSBXB signal was assessed by flow cytometry and compared to the Hrk-BH3 peptide signal in the BH3 profiling assay. Here, AHR, DHL6 and MOLM13 cells were incubated on ice for 3 hours, and then washed and incubated with HSBXB antibody or Bcl-xL antibody at 10 ug/ml for 20 minutes, and then washed and stained with secondary Alexa488-conjugated goat anti-mouse. Signals were corrected to IgG-2A isotype or secondary alone control. The Hrk-BH3 signal in the mitochondrial profiling of the three cell lines was plotted against normalized HSBXB FACS signal.

[1] = target: Bcl-xL/Bim heterodimer in SKBR3 breast cancer cells (Homo sapiens, UniProt Q07817); test: Detection of Bcl-xL/Bim heterodimer with ANTI-HSBXB antibody in treated breast cancer cells, LI-COR imager
Protocol: ABT-263 is a pro-apoptotic compound that can be used on whole cells to disrupt BH3 mediated interactions. Disruption of these heterodimers in treated cells is detected as loss of ANTI-HSBXB signal. Here the cells were treated with various concentrations of ABT-263 for 10 hours at 37° C., then rinsed, fixed with 4% PFA, and incubated with ANTI-HSBXB (a Bcl-xL/Bim heterodimer-specific antibody). IRDye 800CW goat anti-mouse antibody was used to detect the heterodimer specific mouse monoclonal antibody, and IRDye 800CW Goat anti-rabbit antibody was used to detect a commercial Bcl-xL rabbit monoclonal antibody. Cell numbers were normalized by using CellTag 700 Stain.

Sequence of Bcl-xL/Bim heterodimer in SKBR3 breast cancer cells (Q07817 whole entry, one chain of several): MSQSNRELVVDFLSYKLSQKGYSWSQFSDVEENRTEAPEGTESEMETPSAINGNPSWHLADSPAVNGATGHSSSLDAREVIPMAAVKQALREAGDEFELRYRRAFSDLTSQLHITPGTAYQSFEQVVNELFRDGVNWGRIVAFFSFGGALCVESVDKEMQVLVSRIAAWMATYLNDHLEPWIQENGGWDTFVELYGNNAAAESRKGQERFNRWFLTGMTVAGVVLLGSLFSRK

Row | time window where the disruption can be detected prior to caspase mediated membrane disruption [1] | Compound | degree of Bcl-xL priming relative to positive control (DHL-6 cells) | degree of Bcl-xL priming relative to positive control (Molm 13 cells) | degree of Bcl-xL priming relative to positive control (AHR cells) | percent heterodimer specific signal (ANTI-HSBXB detection) ([1]; various concentrations, 10 hours at 37° C., FIG. 2)
1 | – | Hrk-BH3: BH3 peptide HRK, SSAAQLTAARLKALGDELHQ, SEQ ID NO 8; Bcl-xL restricted (listed as Homo sapiens) | slightly higher | less than 5% | above 60% | –
2 | 10 to 12 h | CC1(C)CCC(c2ccc(Cl)cc2)=C(CN2CCN(c3ccc(C(=O)NS(=O)(=O)c4ccc(N[C@H](CCN5CCOCC5)CSc5ccccc5)c(S(=O)(=O)C(F)(F)F)c4)cc3)CC2)C1 [ABT-263] | – | – | – | decreasing the quantity of ANTI-HSBXB detection

Reference: patent US20180100859A1, “SURROGATE FUNCTIONAL BIOMARKER FOR SOLID TUMOR CANCER” (EUTROPICS PHARMACEUTICALS, INC., priority 2015, published 2018)
